Assay results: US5658906A, “Cysteine protease and serine protease inhibitors” (Cephalon, Inc., priority 1996, dated 1997)

Molecular target: T1, Cathepsin B (Homo sapiens, UniProt P07858)
T1 construct: purchased Calbiochem 219364
Test: Inhibition and rate of inactivation of cathepsin B (Cbz-Phe-Arg-AMC hydrolysis)
Format: biochemical
Settings: pH 6.0, 0.1 mM substrate, read-out: k2 (second order rate constant of inactivation), C = Cathepsin B
Description: Additionally, the order of reagents added to the plate was altered because both enzymes are constitutively active. Following inhibitor addition to the plates appropriate 2× concentrated stock dilutions of the enzyme preparations were made in assay buffer and 100 ul added to each well. The assay was initiated by addition of 100 ul of 2× concentrated stock dilution of substrate in assay buffer. Substrate hydrolysis was monitored using a Fluroskan II (ex=390 nm; em=460 nm).
Inhibition of enzyme activity was calculated as the percent decrease in the rate of substrate hydrolysis in the presence of inhibitor (.upsilon.i) relative to the rate in its absence (.upsilon.o). Comparison between .upsilon.o and .upsilon.i was made within the linear range for substrate hydrolysis. For screening, compounds were tested at 10 μM. Compounds having ≥50% inhibition at 10 μM were considered active. Apparent second order rate constants were determined from analysis of reaction progress curves under pseudo-first order conditions. Each determination represents the mean of three or more independent single cuvette analyses continually monitored via a Perkin-Elmer LS50B spectrofluorimeter. The rate of inhibition of hydrolysis was obtained by fitting the curve to the exponential equation (1):
y=Ae^-k.spsb.obs·t +B (1)
where y (Pt) is the product formed at time t. A and B are constants. A, the amplitude of the reaction, is given by [Po -P.varies. ] and B (=P.varies.) is the maximal product formed when the reaction is […]. This was corrected for the presence of equation (2): […]

In the case of `CC(C)C[C@H](NC(=O)OCc1ccccc1)C(=O)N[C@@H](Cc1ccccc1)C(=O)COn1nnc2ccccc21` [Example 3, 1-[N-[N-Benzyloxycarbonyl-L-leucyl]-3S-4-phenyl-3-amino-2-oxobutyloxy]benzotriazole], the kinact/KI is reported as 117000 M⁻¹ s⁻¹.
Work on `CC[C@H](NC(=O)[C@H](CC(C)C)NC(=O)OCc1ccccc1)C(=O)COn1nnc2ccccc21` [Example 5, 1-[N-[N-Benzyloxycarbonyl-L-leucyl]-3S-3-amino-2-oxopentyloxy] benzotriazole] yielded a kinact/KI of 443000 M⁻¹ s⁻¹.
`CC(C)C[C@H](NC(=O)OCc1ccccc1)C(=O)N[C@@H](Cc1ccccc1)C(=O)COn1nnc2cccnc21` [Example 6, 3-[N-[N-Benzyloxycarbonyl-L-leucyl]-3S-4-phenyl-3-amino-2-oxobutyloxy]-3H-triazolo[4,5-b]pyridine] gave a kinact/KI of 107000 M⁻¹ s⁻¹.
`CC(C)C[C@H](NC(=O)OCc1ccccc1)C(=O)N[C@@H](Cc1ccccc1)C(=O)COn1nnc2ccccc2c1=O` [Example 28, 1-[N-[N-Benzyloxycarbonyl-L-leucyl]-3S-4-phenyl-3-amino-2-oxobutyloxy]-3-benzotriazin-4-one] gave a kinact/KI of 7000 M⁻¹ s⁻¹.
